# According to PubChem BioAssay (NCI):
#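 Grown in 96-well plates, cells were treated for 48 hours with each compound at five concentrations. Insufficient inhibition: endpoint recorded as highest concentration tested. TGI denotes the concentration required for complete inhibition of growth.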
# What was measured:
# Experiment in all cases: growth of human tumour cells (NCI), 48 h
# [1] = system: SF-268 CNS
# [2] = system: BT-549 breast
# [3] = system: MDA-N
# [4] = system: TK-10 renal
# [5] = system: NCI-H226 lung
# [6] = system: CCRF-CEM leukemia
# [7] = system: HOP-92 NSCLC
# [8] = system: COLO 205 colon
# [9] = system: HT29 colon
# [10] = system: HL-60(TB) leukemia
# [11] = system: 786-0 renal
# [12] = system: SW-620 colon
# [13] = system: MCF7 breast
# [14] = system: SK-MEL-28 melanoma
# [15] = system: HOP-62 NSCLC
# [16] = system: M14 melanoma
# [17] = system: PC-3 prostate
# [18] = system: T-47D breast
# [19] = system: HCT-15 colon
# [20] = system: U251 CNS
# [21] = system: HS 578T breast
# [22] = system: UO-31 renal
# [23] = system: IGROV1 ovarian
# [24] = system: UACC-257 melanoma
# [25] = system: ACHN renal
# [26] = system: SK-OV-3 ovarian
# [27] = system: RPMI-8226 leukemia
# [28] = system: NCI/ADR-RES ovarian
# [29] = system: MDA-MB-435
# [30] = system: NCI-H522 lung
# [31] = system: SK-MEL-2 melanoma
# [32] = system: MDA-MB-231 breast
# [33] = system: NCI-H460 lung
# [34] = system: OVCAR-4 ovarian
# [35] = system: HCT-116 colon
# [36] = system: NCI-H23 lung
# [37] = system: DU-145 prostate
# [38] = system: OVCAR-5 ovarian
# [39] = system: OVCAR-3 ovarian
# [40] = system: SN12C renal
# [41] = system: SF-539 CNS
# [42] = system: KM12 colon
# [43] = system: A498 renal
# [44] = system: LOX IMVI melanoma
# [45] = system: SNB-75 CNS
# [46] = system: RXF 393 renal
# [47] = system: K-562 leukemia
# [48] = system: OVCAR-8 ovarian
# [49] = system: SR leukemia
# [50] = system: MALME-3M melanoma
# [51] = system: MOLT-4 leukemia
# [52] = system: SF-295 CNS
# [53] = system: SNB-19 CNS
# [54] = system: CAKI-1 renal
# [55] = system: UACC-62 melanoma
# [56] = system: A549 NSCLC
# [57] = system: EKVX NSCLC
# [58] = system: SK-MEL-5 melanoma
# [59] = system: HCC-2998 colon
smiles,measurement,setting,value
CN(C)c1ccc2nc3c(C(=O)O)cc(=O)c(O)c-3oc2c1,TGI,[1],> 100 µM
same,TGI,[2],42.8 µM
same,TGI,[3],55.5 µM
same,TGI,[4],47.5 µM
same,TGI,[5],> 100 µM
same,TGI,[6],57.8 µM
same,TGI,[7],> 100 µM
same,TGI,[8],60 µM
same,TGI,[9],> 100 µM
same,TGI,[10],72.3 µM
same,TGI,[11],82.7 µM
same,TGI,[12],> 100 µM
same,TGI,[13],56.5 µM
same,TGI,[14],> 100 µM
same,TGI,[15],> 100 µM
same,TGI,[16],49.8 µM
same,TGI,[17],> 100 µM
same,TGI,[18],47.4 µM
same,TGI,[19],> 100 µM
same,TGI,[20],> 100 µM
same,TGI,[21],> 100 µM
same,TGI,[22],80.1 µM
same,TGI,[23],> 100 µM
same,TGI,[24],32.3 µM
same,TGI,[25],> 100 µM
same,TGI,[26],> 100 µM
same,TGI,[27],95.2 µM
same,TGI,[28],85.7 µM
same,TGI,[29],54.9 µM
same,TGI,[30],31.9 µM
same,TGI,[31],40.2 µM
same,TGI,[32],> 100 µM
same,TGI,[33],66 µM
same,TGI,[34],> 100 µM
same,TGI,[35],80.1 µM
same,TGI,[36],33.6 µM
same,TGI,[37],> 100 µM
same,TGI,[38],> 100 µM
same,TGI,[39],60.8 µM
same,TGI,[40],64.6 µM
same,TGI,[41],69.3 µM
same,TGI,[42],> 100 µM
same,TGI,[43],> 100 µM
same,TGI,[44],> 100 µM
same,TGI,[45],60 µM
same,TGI,[46],76.3 µM
same,TGI,[47],74.8 µM
same,TGI,[48],> 100 µM
same,TGI,[49],50.1 µM
same,TGI,[50],31.7 µM
same,TGI,[51],51.8 µM
same,TGI,[52],> 100 µM
same,TGI,[53],89.8 µM
same,TGI,[54],> 100 µM
same,TGI,[55],46 µM
same,TGI,[56],> 100 µM
same,TGI,[57],81 µM
same,TGI,[58],29.3 µM
CC(C)C[C@H](NC(=O)CCc1ccccc1)B(O)O,TGI,[1],59.4 µM
same,TGI,[2],57.6 µM
same,TGI,[3],7.27 µM
same,TGI,[4],55.8 µM
same,TGI,[5],4.8 µM
same,TGI,[6],7.33 µM
same,TGI,[7],65.1 µM
same,TGI,[8],75.3 µM
same,TGI,[9],15.4 µM
same,TGI,[10],8.8 µM
same,TGI,[11],57.5 µM
same,TGI,[12],19.1 µM
same,TGI,[13],> 100 µM
same,TGI,[14],32.4 µM
same,TGI,[15],46.9 µM
same,TGI,[16],24.7 µM
same,TGI,[17],> 100 µM
same,TGI,[18],43.9 µM
same,TGI,[19],38.1 µM
same,TGI,[20],> 100 µM
same,TGI,[21],29.6 µM
same,TGI,[22],60.1 µM
same,TGI,[23],> 100 µM
same,TGI,[24],37.8 µM
same,TGI,[25],> 100 µM
same,TGI,[27],6.11 µM
same,TGI,[28],49.2 µM
same,TGI,[29],7.79 µM
same,TGI,[30],31.1 µM
same,TGI,[31],39.4 µM
same,TGI,[32],36.2 µM
same,TGI,[33],52.9 µM
same,TGI,[34],> 100 µM
same,TGI,[35],18.6 µM
same,TGI,[36],> 100 µM
same,TGI,[37],> 100 µM
same,TGI,[38],40.2 µM
same,TGI,[39],17.4 µM
same,TGI,[40],61.5 µM
same,TGI,[41],15.4 µM
same,TGI,[42],32.8 µM
same,TGI,[43],14 µM
same,TGI,[44],16.7 µM
same,TGI,[46],19.1 µM
same,TGI,[47],62.7 µM
same,TGI,[48],46.2 µM
same,TGI,[49],9.8 µM
same,TGI,[50],32.9 µM
same,TGI,[51],11.4 µM
same,TGI,[52],34.5 µM
same,TGI,[53],> 100 µM
same,TGI,[54],25.2 µM
same,TGI,[55],72.9 µM
same,TGI,[56],> 100 µM
same,TGI,[59],27 µM
same,TGI,[57],> 100 µM
same,TGI,[58],22.8 µM
